Assay [1] deals with recombinant human ASK1 (hASK1) catalytic domain (Homo sapiens (Human), UniProt Q99683). The assay is described as follows: ASK1 enzymatic assay (ADP-Glo Kinase Assay). The following applies: for IC50: hASK1 0.25 nM, MKK6 300 nM, ATP 100 μM, mean ± standard deviation; for Efficacy: hASK1 enzymatic assay, standard benzamide ASK1 inhibitor = 100% inhibition, DMSO = 0%. It is filed as biochemical. The source says:
The purpose of this assay is to determine the effect of ASK1 inhibitors on the production of ADP by ASK1. The recombinant human ASK1 (hASK1) catalytic domain tagged with Glutathione S-transferase is used, and histidine-tagged full-length human MAP kinase kinase 6 (MKK6) and ATP are the substrate and cofactor, respectively.
The assay is done using an ADP-Glo™ Kinase Assay Kit (Promega, Catalog #V9102) according to the manufacturer's protocol with the following modifications. Briefly, hASK1 (0.25 nM) and MKK6 (300 nM) in a buffer (10 mM MOPS pH 7.0; 10 mM Mg-Acetate; 1 mM DTT; 0.025% NP-40; 0.05% BSA; 1.5% glycerol) are incubated with ASK1 inhibitors at varying concentrations ranging from 10.00 μM to 0.17 nM for 15 minutes, followed by incubation with ATP (100 μM) for 30 minutes at room temperature. ADP-Glo™ Reagent is added to terminate the kinase reaction and deplete the remaining ATP. The Kinase Detection Reagent is then added to convert ADP to ATP. The newly synthesized ATP is measured using a luciferase/luciferin reaction, and the luminescence determined by Envision (PerkinElmer). The luminescence intensities are analyzed by GeneData, and fit to a 4 parameter dose response-inhibitor logistics curve to determine IC50 values, using the effects of 5-(4-cyclopropyl-1H-imidazol-1-yl)-2-fluoro-4-methyl-N-{6-[4-(propan-2-yl)-4H-1,2,4-triazol-3-yl]pyridin-2-yl}benzamide as a standard and DMSO vehicle for 100% and 0% inhibition, respectively.
(In ADP-Glo the light output rises with the ADP produced.)

The target in a further assay is human ASK1 (Homo sapiens (Human), UniProt Q99683). The assay is described as follows: ASK1 autophosphorylation (Thr838) assay in HEK293 cells overexpressing human ASK1. The following applies: for IC50: H2O2-stimulated (1 mM, 10 min) ASK1 autophosphorylation at Thr838, HEK293 cells, HTRF, mean ± standard deviation, read-out: HEK pASK1 IC50; for Efficacy: HEK pASK1 assay, standard benzamide ASK1 inhibitor = 100% inhibition, DMSO = 0%. The format is cell-based.
Chain of human ASK1 (Q99683 whole entry): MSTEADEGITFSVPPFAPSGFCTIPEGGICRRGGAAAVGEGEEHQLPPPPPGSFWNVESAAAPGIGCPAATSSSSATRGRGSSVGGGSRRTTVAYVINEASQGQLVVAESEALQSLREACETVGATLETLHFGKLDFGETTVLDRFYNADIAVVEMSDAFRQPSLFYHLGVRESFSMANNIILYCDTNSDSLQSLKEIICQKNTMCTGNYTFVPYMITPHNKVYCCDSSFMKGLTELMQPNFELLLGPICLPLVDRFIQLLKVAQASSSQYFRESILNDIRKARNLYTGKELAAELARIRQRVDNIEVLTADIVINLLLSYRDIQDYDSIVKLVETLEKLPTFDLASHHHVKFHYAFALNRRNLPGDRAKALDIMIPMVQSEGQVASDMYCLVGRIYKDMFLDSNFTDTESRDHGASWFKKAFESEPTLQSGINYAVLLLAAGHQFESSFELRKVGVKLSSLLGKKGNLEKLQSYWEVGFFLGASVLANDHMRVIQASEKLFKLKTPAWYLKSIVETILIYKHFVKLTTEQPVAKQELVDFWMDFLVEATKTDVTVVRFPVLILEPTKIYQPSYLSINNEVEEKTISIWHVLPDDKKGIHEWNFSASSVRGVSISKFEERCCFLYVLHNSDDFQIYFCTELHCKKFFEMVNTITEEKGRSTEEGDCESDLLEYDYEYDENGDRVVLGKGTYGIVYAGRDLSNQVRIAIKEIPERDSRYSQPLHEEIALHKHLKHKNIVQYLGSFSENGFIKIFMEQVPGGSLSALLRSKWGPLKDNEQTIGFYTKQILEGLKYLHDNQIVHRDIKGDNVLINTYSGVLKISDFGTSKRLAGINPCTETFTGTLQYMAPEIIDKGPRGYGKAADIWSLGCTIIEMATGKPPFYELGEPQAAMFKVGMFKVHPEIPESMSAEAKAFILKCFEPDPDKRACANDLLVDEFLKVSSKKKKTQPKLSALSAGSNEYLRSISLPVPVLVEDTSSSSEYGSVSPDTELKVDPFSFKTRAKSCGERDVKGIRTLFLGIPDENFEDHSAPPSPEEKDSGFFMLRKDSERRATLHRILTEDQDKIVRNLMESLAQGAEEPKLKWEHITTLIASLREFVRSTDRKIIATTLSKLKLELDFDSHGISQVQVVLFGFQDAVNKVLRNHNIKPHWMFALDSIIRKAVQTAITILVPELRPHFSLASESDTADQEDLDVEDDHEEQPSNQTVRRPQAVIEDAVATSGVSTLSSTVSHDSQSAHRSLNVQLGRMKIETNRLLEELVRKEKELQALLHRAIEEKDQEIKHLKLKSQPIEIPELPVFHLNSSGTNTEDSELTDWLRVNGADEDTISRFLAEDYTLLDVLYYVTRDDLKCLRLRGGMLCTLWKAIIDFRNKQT

Chain of recombinant human ASK1 (hASK1) catalytic domain (Q99683 680-938): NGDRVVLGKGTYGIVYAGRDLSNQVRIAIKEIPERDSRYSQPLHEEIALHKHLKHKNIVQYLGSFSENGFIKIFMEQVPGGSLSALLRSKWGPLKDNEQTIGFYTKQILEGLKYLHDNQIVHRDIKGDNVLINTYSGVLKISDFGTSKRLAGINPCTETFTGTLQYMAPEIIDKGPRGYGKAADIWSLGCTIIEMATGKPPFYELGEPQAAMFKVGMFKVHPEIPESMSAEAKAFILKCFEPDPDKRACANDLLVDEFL

With `CC(C)n1cnnc1-c1cccc(N2CCN(C3CC(n4cnc(C5CC5)n4)C3)C2=O)n1` (stereo not drawn) [Example 4, 1-[3-(3-Cyclopropyl-1,2,4-triazol-1-yl)cyclobutyl]-3-[6-(4-isopropyl-1,2,4-triazol-3-yl)-2-pyridyl]imidazolidin-2-one], the IC50 in assay [1] came out at 2.56 ± 0.68 nM; on human ASK1, 108 nM. Also, the Efficacy is 100% in assay [1] and 99% on human ASK1.

Turning to `Cc1ncc(C2CC(N3CCN(c4cccc(-c5nncn5C(C)C)n4)C3=O)C2)cn1` (single isomer, unassigned) [Example 9, 1-(6-(4-Isopropyl-4H-1,2,4-triazol-3-yl)pyridin-2-yl)-3-(3-(2-methylpyrimidin-5-yl)cyclobutyl)imidazolidin-2-one], in assay [1], the IC50 is 6.21 ± 4.18 nM and the Efficacy worked out at 100%.

As to `CC(C)n1cnnc1-c1cccc(N2CCN(C3CC(n4cnc(C5CC5)c4)C3)C2=O)n1` (single isomer, unassigned) [Example 2, 1-[3-(4-Cyclopropylimidazol-1-yl)cyclobutyl]-3-[6-(4-isopropyl-1,2,4-triazol-3-yl)-2-pyridyl]imidazolidin-2-one], in assay [1], the IC50 worked out at 1.47 ± 0.6 nM and the Efficacy worked out at 100%. On human ASK1, the IC50 stood at 48.8 ± 19.1 nM and the Efficacy turned out to be 105%.

Regarding `CC(C)n1cc(C2CC(N3CCN(c4cccc(-c5nncn5C(C)C)n4)C3=O)C2)cn1` (stereo not drawn) [Example 6, 1-[3-(1-Isopropylpyrazol-4-yl)cyclobutyl]-3-[6-(4-isopropyl-1,2,4-triazol-3-yl)-2-pyridyl]imidazolidin-2-one], in assay [1], the IC50 stood at 2.17 ± 0.45 nM and the Efficacy is listed as 100%. In addition, on human ASK1, the IC50 stood at 27.1 nM and the Efficacy came out at 102%.

Turning to `CC(C)n1cnnc1-c1cccc(N2CCN(C3CC(n4cnc(C(C)(C)C)c4)C3)C2=O)n1` (stereo not drawn) [Example 5, 1-(3-(4-(tert-Butyl)-1H-imidazol-1-yl)cyclobutyl)-3-(6-(4-isopropyl-4H-1,2,4-triazol-3-yl)pyridin-2-yl)imidazolidin-2-one], in assay [1], the IC50 stood at 1.84 ± 0.64 nM and the Efficacy came out at 100%.

For the compound `CC(C)n1cnnc1-c1cccc(N2CCN(C3CC(n4cnc(C(F)(F)F)c4)C3)C2=O)n1` (stereo not drawn) [Example 3, 1-(6-(4-Isopropyl-4H-1,2,4-triazol-3-yl)pyridin-2-yl)-3-(3-(4-(trifluoromethyl)-1H-imidazol-1-yl)cyclobutyl)imidazolidin-2-one], in assay [1], the IC50 was 2.8 ± 0.97 nM and the Efficacy worked out at 100%. For the same compound, on human ASK1, the IC50 was found to be 126 nM and the Efficacy was 98.5%.

Regarding `Cc1ccc(C2CC(N3CCN(c4cccc(-c5nncn5C(C)C)n4)C3=O)C2)cn1` (single isomer, unassigned) [Example 8, 1-[6-(4-Isopropyl-1,2,4-triazol-3-yl)-2-pyridyl]-3-[3-(6-methyl-3-pyridyl)cyclobutyl]imidazolidin-2-one], in assay [1], the IC50 came out at 5.26 ± 0.72 nM and the Efficacy was determined as 100%. Also, at human ASK1, the IC50 came out at 235 nM and the Efficacy came to 97.5%.

In general, IC50 refers to the midpoint of a concentration-inhibition curve.
